Results on three compounds are retold here after ChEMBL document CHEMBL4373723 (J Med Chem, 2019).

The structures appear in SMILES notation. Calls of active or inactive are those of the source. The calls are words filed in the database; no cut-off is given here. Bridge positions count the residues as written; N and C are the ends. Peptide text beside a SMILES is read from it. I, II: the chains in the order shown.

Series [1] concerns the target T1, Frizzled-7 (Homo sapiens, UniProt O75084). In kind it is cell-based. The note with it: cho.
Series [2] concerns the target T1, Frizzled-7. The series is described as follows: biochemical. In kind it is cell-based, CHO. The note with it: read-out: Kd.
The target of the next series is Frizzled-1 (Homo sapiens, UniProt Q9UP38). Nature of the series: Binding affinity to recombinant human Frizzled-1 (Gln73 to His253 residues)/human IgG1 chimeric protein expressed in mouse NS0 cells by SPR assay.
Series [3] can be described thus: Binding affinity to recombinant human/mouse Frizzled-2 (Gln29 to Leu168 residues)/human IgG1 chimeric protein expressed in mouse NS0 cells by SPR assay.
A further series deals with Frizzled-5 (Homo sapiens, UniProt Q13467). Nature of the series: Binding affinity to recombinant human Frizzled-5 (Ala27 to Pro167 residues)/human IgG1 chimeric protein expressed in mouse NS0 cells by SPR assay.
The target in another series is Frizzled-8 (Homo sapiens, UniProt Q9H461). Nature of the series: Binding affinity to recombinant human Frizzled-8 (Ala25 to Pro172 residues)/human IgG1 chimeric protein expressed in CHO cells […] by SPR assay.
A further series concerns the target T2, Frizzled-4 (Homo sapiens, UniProt Q9ULV1).
T2 sequence (Q9ULV1 whole entry): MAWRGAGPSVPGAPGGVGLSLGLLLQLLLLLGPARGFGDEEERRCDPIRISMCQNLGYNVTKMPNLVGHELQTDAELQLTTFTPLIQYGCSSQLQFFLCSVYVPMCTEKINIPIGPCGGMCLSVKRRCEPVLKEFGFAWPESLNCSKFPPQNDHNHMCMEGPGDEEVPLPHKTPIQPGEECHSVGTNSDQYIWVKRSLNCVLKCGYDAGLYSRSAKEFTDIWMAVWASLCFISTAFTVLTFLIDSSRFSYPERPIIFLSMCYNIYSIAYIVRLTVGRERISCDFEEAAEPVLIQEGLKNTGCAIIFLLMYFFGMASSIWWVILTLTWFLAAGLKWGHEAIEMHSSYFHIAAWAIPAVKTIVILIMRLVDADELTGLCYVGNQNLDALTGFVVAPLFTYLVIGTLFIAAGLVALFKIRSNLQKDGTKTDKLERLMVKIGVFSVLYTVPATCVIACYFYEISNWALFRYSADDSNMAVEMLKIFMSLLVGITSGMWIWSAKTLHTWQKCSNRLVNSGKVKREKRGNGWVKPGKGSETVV
Nature of the series: Binding affinity to recombinant human Frizzled-4 (Phe37 to Glu180 residues)/human IgG1 chimeric protein expressed in mouse NS0 cells by SPR assay.

For a further series, the target named is T3, Frizzled-9 (Homo sapiens, UniProt O00144).
T3 sequence (O00144 whole entry): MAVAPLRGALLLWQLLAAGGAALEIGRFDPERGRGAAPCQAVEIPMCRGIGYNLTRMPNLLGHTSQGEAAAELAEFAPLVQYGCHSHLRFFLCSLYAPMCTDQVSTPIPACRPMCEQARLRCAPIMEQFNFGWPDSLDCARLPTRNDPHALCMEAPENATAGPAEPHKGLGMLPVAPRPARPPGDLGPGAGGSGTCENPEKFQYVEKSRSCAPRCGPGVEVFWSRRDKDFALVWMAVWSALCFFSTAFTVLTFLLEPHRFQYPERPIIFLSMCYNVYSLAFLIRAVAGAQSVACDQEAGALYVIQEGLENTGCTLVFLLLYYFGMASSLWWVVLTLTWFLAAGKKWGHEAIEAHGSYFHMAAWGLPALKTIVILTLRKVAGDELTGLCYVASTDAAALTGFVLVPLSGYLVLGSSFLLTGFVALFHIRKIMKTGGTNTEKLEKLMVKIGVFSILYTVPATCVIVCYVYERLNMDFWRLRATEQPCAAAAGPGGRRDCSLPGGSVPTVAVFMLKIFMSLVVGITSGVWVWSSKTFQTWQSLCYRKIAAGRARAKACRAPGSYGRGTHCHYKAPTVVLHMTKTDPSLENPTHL
The series is described as follows: Binding affinity to Frizzled-9 CRD (unknown origin).

For the next series, the target named is T4, Frizzled-10 (Homo sapiens, UniProt Q9ULW2).
T4 sequence (Q9ULW2 whole entry): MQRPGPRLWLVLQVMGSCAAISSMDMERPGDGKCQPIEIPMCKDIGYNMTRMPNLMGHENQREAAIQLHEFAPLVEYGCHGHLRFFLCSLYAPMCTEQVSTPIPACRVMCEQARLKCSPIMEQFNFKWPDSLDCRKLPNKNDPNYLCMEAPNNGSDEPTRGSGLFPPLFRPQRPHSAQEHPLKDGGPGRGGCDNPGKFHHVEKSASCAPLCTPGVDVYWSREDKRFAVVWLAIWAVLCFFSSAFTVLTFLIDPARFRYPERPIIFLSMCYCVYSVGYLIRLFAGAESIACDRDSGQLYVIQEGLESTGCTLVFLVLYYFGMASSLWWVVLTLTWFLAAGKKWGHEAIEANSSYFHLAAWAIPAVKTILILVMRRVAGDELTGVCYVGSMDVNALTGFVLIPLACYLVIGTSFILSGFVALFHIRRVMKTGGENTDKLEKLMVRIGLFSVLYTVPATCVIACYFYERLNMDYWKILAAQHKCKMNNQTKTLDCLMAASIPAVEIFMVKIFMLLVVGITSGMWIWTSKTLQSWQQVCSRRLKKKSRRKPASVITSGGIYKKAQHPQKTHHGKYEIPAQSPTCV
Nature of the series: Binding affinity to Frizzled-10 CRD (unknown origin).

The target in series [4] is T1, Frizzled-7. Nature of the series: Inhibition of Frizzled-7 in HEK293 cells expressing Wnt assessed as reduction in Wnt signaling by firefly luciferase reporter gene assay. In kind it is cell-based.
Series [5] addresses T1, Frizzled-7. The series is described as follows: Binding affinity to recombinant human Frizzled-7 (Gln33 to Leu185 residues)/human IgG1 chimeric protein expressed in CHO cells assessed as reduction in interaction of TcdB with FZD7 incubated for 1 hr by competition ELISA. In kind it is cell-based.
Series [6] can be described thus: Binding affinity to recombinant human/mouse Frizzled-2 (Gln29 to Leu168 residues)/human IgG1 chimeric protein expressed in mouse NS0 cells assessed as reduction in interaction of TcdB with FZD7 incubated for 1 hr by competition ELISA. In kind it is cell-based.
Series [7] concerns the target T1, Frizzled-7. Nature of the series: Binding affinity to recombinant human Frizzled-7 (Gln33 to Leu185 residues)/human IgG1 chimeric protein expressed in CHO cells assessed as reduction in interaction of TcdB with FZD7 by SPR.
A further series is filed under the species Homo sapiens. Nature of the series: Binding affinity to recombinant human/mouse Frizzled-2 (Gln29 to Leu168 residues)/human IgG1 chimeric protein expressed in mouse NS0 cells assessed as reduction in interaction of TcdB with FZD7 by SPR.
For series [8], the target named is T1, Frizzled-7. Particulars: CHO.
Description: Binding affinity to recombinant human Frizzled-7 (Gln33 to Leu185 residues)/human IgG1 chimeric protein expressed in CHO cells assessed as association rate constant by SPR assay
The nature of series [9]: Stability in presence of TCEP assessed as disulfide reduction at 20 uM measured over 40 mins at 37 degC by LC-MS analysis. In kind it is physicochemical.
The conditions of series [10]: mouse, serum, 24 h, 200 µM.
The conditions of series [11]: 40 min, 20 µM.
The conditions of series [12]: 40 min, 20 µM. This is another data set of the same source.

Chain of Frizzled-5 (Q13467 whole entry): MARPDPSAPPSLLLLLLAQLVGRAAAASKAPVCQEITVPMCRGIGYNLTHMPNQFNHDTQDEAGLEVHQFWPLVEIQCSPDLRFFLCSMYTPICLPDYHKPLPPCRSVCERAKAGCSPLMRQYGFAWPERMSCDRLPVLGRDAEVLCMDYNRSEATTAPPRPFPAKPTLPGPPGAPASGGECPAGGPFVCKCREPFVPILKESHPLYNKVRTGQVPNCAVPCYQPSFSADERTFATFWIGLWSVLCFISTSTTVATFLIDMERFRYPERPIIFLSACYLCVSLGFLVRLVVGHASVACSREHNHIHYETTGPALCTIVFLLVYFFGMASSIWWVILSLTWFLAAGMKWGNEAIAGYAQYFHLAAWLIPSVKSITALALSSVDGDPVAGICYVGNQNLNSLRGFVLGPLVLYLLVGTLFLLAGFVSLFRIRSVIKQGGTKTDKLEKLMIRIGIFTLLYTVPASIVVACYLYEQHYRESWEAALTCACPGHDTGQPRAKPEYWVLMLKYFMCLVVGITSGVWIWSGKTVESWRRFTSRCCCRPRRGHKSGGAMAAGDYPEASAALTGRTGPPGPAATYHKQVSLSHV
Chain of Frizzled-8 (Q9H461 whole entry): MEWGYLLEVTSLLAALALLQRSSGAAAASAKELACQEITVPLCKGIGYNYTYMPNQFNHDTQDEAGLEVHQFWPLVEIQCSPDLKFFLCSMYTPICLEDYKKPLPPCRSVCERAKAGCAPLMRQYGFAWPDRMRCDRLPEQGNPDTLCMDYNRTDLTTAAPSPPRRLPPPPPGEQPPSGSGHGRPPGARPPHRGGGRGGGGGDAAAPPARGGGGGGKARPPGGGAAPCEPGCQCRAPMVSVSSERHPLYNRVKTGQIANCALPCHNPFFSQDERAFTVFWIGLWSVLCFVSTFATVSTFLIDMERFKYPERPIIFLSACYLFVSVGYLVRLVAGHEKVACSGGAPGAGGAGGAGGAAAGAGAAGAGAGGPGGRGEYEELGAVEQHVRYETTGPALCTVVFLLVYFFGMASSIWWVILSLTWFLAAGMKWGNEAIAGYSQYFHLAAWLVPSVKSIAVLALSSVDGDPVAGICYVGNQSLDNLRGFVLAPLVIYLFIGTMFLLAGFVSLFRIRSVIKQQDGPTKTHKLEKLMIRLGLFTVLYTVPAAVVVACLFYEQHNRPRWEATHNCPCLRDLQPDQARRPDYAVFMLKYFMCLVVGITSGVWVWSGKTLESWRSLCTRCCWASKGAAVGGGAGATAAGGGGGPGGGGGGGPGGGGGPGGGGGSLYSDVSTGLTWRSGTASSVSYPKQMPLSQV
Chain of Frizzled-1 (Q9UP38 whole entry): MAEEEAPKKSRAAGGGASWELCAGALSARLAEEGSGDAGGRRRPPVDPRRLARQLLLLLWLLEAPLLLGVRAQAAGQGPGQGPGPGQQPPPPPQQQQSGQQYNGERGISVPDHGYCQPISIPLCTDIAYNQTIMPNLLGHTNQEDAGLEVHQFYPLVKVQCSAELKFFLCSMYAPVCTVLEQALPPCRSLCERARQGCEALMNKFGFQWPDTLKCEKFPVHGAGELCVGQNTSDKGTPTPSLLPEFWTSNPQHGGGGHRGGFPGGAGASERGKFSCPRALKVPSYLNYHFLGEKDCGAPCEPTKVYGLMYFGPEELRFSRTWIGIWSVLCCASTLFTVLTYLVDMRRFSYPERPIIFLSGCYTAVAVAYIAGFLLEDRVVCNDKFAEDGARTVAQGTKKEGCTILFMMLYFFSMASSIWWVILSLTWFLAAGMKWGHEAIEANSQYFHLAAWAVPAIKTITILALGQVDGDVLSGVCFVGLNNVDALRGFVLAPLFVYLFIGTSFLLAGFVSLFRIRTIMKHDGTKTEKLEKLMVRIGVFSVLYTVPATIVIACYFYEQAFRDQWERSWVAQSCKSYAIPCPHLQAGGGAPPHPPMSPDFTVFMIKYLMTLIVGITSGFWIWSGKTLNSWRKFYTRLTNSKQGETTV

For the compound `CC[C@H](C)[C@H](NC(=O)[C@H](Cc1cnc[nH]1)NC(=O)[C@H](CSSC[C@H](NC(=O)[C@H](Cc1c[nH]c2ccccc12)NC(=O)[C@H](Cc1cccc(Cl)c1)NC(=O)[C@H](CCC(=O)O)NC(=O)[C@H](CC(C)C)NC(=O)[C@H](CC(=O)O)NC(=O)[C@H](CC(=O)O)NC(=O)[C@@H](NC(C)=O)[C@H](C)O)C(=O)N[C@@H](Cc1cnc[nH]1)C(=O)N[C@H](C(=O)N[C@@H](CCSC)C(=O)N[C@@H](Cc1ccc(O)cc1)C(N)=O)[C@@H](C)CC)NC(=O)[C@H](Cc1c[nH]c2ccccc12)NC(=O)[C@H](CC(C)C)NC(=O)[C@H](CCC(=O)O)NC(=O)[C@H](Cc1cccc(Cl)c1)NC(=O)[C@H](CC(=O)O)NC(=O)[C@H](CC(=O)O)NC(=O)[C@@H](NC(C)=O)[C@H](C)O)C(=O)N[C@@H](CCSC)C(=O)N[C@@H](Cc1ccc(O)cc1)C(N)=O`, the Kd is 0.54 ×10⁻³ /s at Frizzled-7 [1]; 0.039 nM on Frizzled-7 [2]; 0.34 nM on Frizzled-1; 0.32 nM in series [3]; “Not Active” at Frizzled-5; “Not Active” on Frizzled-8. The Kd entry on Frizzled-4, at Frizzled-9 and on Frizzled-10 was “Not Active” in each case. The IC50 on Frizzled-7 [4] stood at 53 nM. Besides, the inhibition result (at Frizzled-7 [5]; in [6]) was “Dose-dependent effect” throughout. Besides, the inhibition result on Frizzled-7 [7] and in the series filed under Homo sapiens was “Active” in each case. At Frizzled-7 [8], this compound gave a Ka of 139 ×10⁵ /M/s.
`CSCC[C@H](NC(=O)[C@@H](NC(=O)[C@H](Cc1cnc[nH]1)NC(=O)[C@H](CSSC[C@H](NC(=O)[C@H](Cc1c[nH]c2ccccc12)NC(=O)[C@H](Cc1ccccc1)NC(=O)[C@H](CCC(=O)O)NC(=O)[C@H](CC(C)C)NC(=O)[C@H](CC(=O)O)NC(=O)[C@H](CC(=O)O)NC(=O)[C@H](CO)NC(=O)[C@@H]1CCCN1C(=O)[C@H](CC(C)C)NC(C)=O)C(=O)N[C@@H](Cc1cnc[nH]1)C(=O)N[C@H](C(=O)N[C@@H](CCSC)C(=O)N[C@@H](Cc1ccc(O)cc1)C(N)=O)C(C)C)NC(=O)[C@H](Cc1c[nH]c2ccccc12)NC(=O)[C@H](Cc1ccccc1)NC(=O)[C@H](CCC(=O)O)NC(=O)[C@H](CC(C)C)NC(=O)[C@H](CC(=O)O)NC(=O)[C@H](CC(=O)O)NC(=O)[C@H](CO)NC(=O)[C@@H]1CCCN1C(=O)[C@H](CC(C)C)NC(C)=O)C(C)C)C(=O)N[C@@H](Cc1ccc(O)cc1)C(N)=O` (I: Ac-LPSDDLEFWCHVMY-NH2 / II: Ac-LPSDDLEFWCHVMY-NH2; disulfide I:10-II:10): the Kd at Frizzled-7 [1] was 5.6 ×10⁻³ /s; at Frizzled-7 [2], 1.18 nM; at Frizzled-1, 2.42 nM; in series [3], 1.46 nM; at Frizzled-5, “Not Active”; on Frizzled-8 it was “Not Active”. The Kd entry on Frizzled-4, on Frizzled-9 and at Frizzled-10 was “Not Active” each time. For the same compound, the IC50 at Frizzled-7 [4] came to 32 nM. The inhibition result (on Frizzled-7 [5]; in series [6]) was “Dose-dependent effect” in each case. Moreover, the Ka on Frizzled-7 [8] was 47.5 ×10⁵ /M/s.
Turning to `CSCC[C@H](NC(=O)[C@@H](NC(=O)[C@H](Cc1cnc[nH]1)NC(=O)[C@H](CSSC[C@H](NC(=O)[C@H](Cc1c[nH]c2ccccc12)NC(=O)[C@H](Cc1ccccc1)NC(=O)[C@H](CCC(=O)O)NC(=O)[C@H](CC(C)C)NC(=O)[C@H](CC(=O)O)NC(=O)[C@H](CC(=O)O)NC(=O)[C@H](CO)NC(C)=O)C(=O)N[C@@H](Cc1cnc[nH]1)C(=O)N[C@H](C(=O)N[C@@H](CCSC)C(=O)N[C@@H](Cc1ccc(O)cc1)C(N)=O)C(C)C)NC(=O)[C@H](Cc1c[nH]c2ccccc12)NC(=O)[C@H](Cc1ccccc1)NC(=O)[C@H](CCC(=O)O)NC(=O)[C@H](CC(C)C)NC(=O)[C@H](CC(=O)O)NC(=O)[C@H](CC(=O)O)NC(=O)[C@H](CO)NC(C)=O)C(C)C)C(=O)N[C@@H](Cc1ccc(O)cc1)C(N)=O` (I: Ac-SDDLEFWCHVMY-NH2 / II: Ac-SDDLEFWCHVMY-NH2; disulfide I:8-II:8), the Kd is 2.3 ×10⁻³ /s on Frizzled-7 [1]; 0.37 nM on Frizzled-7 [2]; 1.12 nM on Frizzled-1; 0.99 nM in series [3]; “Not Active” on Frizzled-5; “Not Active” on Frizzled-8. Also, the Kd result on Frizzled-4, on Frizzled-9 and on Frizzled-10 was “Not Active” in each case. The Stability entry is reported as “Unstable” in [9], “Stable” in [10], “Unstable” in series [11] and “Unstable” in [12]. Moreover, the inhibition entry (at Frizzled-7 [5]; in series [6]) was “Dose-dependent effect” each time. This compound also had a Ka on Frizzled-7 [8] of 61.9 ×10⁵ /M/s.
